Source: US11072592B2, “Small molecules that enable cartilage rejuvenation” (The Regents of the University of California, priority 2015, dated 2021)

How the values were obtained:
[1] = system: human adult articular chondrocytes; assay: Cellular metabolism (Seahorse ECAR and OCR), human adult articular chondrocytes; assay type: cell-based
Experimental: The mitochondrial assay cellular oxygen consumption and mitochondrial function was carried out to measure basal respiration using XF24 instrument (Seahorse Biosciences) according to manufacturer instructions. Tested cells (100,000 cells per well) we plated into 24-well test plates 48 hours prior to experimentation. Oxygen consumption rates and extracellular acidification rates were measured every 10 minutes for up to 60 minutes (Rate 1-6).

pSTAT3 and MYC [2] = assay: Duration of pSTAT3/MYC induction after wash out or release from PLGA microspheres; assay type: cell-based, pig; settings: drug applied 24 hours, then washed out
Experimental: (§1) FIGS. 31A-31D. […] (FIG. 31A) Experiments were conducted to test the tissue reparative function of compounds disclosed herein. FIG. 31A depicts histograms of amounts of glycosaminoglycans (GAGs) and collagen 2 observed under control conditions and after administration of RCGD 423. (FIG. 31B) The duration of the effects elicited by RCGD 423 was determined by applying the drug for 24 hours and then washing it out. Protein levels of pSTAT3 and MYC were determined at the indicated time points after wash out; histone H3 was used as a loading control. (FIG. 31C) Protein levels of MYC and pSTAT3 in adult pig articular chondrocytes were used to determine the time frame in which release of RCGD 423 from PLGA microspheres reaches efficacious levels. Supernatant from drug-loaded PLGA microspheres was harvested at the indicated intervals and applied to pig chondrocytes. Histone H3 was used as a loading control. (FIG. 31D) Repair in a tissue context was assessed by removing small explants from a biopsy punch of adult pig articular cartilage. Matrigel with or without RCGD 423-loaded microspheres was applied to the defects. Safranin O staining was performed on sections of explants following 5 weeks of culture; border of defect and intact tissue is shown.
(§2) We also tested whether RCGD 423 could initiate healing of small defects generated on the surface of intact articular cartilage. […]

[3] = system: human adult articular chondrocytes; assay: RNA-Seq of human adult articular chondrocytes; assay type: cell-based; settings: n=7
pSTAT3 and MYC [4] = assay: pSTAT3 and MYC in other cells/tissues; assay type: cell-based; settings: embryonic stem cells and the heart; unpublished preliminary data
Text: Based on the functional properties elicited by RCGD 423, we propose that it (or compounds functionally similar to it) may represent core components of treatment regimens for articular cartilage injury.

adult chondrocytes = assay: Collagen 2 production by adult chondrocytes; assay type: cell-based; settings: compared with control (DMSO)
Text: FIGS. 21A-21B. […] (FIG. 21A) cell sorting results for isotype (left), BMPR18^neg (middle), and BMPR18+ cells (right). (FIG. 21B) CRM-423 (right panel) stimulates collagen 2 product by adult chondrocytes compared with control (DMSO, left panel).
Cmpd 423 stimulates collagen 2 product by adult chondrocytes (FIG. 21B).

chondrocyte cultures = assay: Toxicity in chondrocyte cultures; assay type: cell-based
Experimental: (§3) In a clinical setting, treatment with exogenous growth factors would present a difficult and expensive strategy. To address this, our group designed a high throughput screen to identify small molecule modulators of chondrogenic differentiation based on the prevention of the hypertrophy-associated marker collagen X (COLX). […] Importantly, the stimulatory effect of CRMs on p-STAT3 and c-MYC was reversible; protein levels of both p-STAT-3 and c-MYC decreased 48 hours after CRM-398 or -423 withdrawal (data not shown). Identification of such compounds can not only allow us to control differentiation of chondrocytes, but also manipulate the expression of STAT3 and c-MYC to achieve rejuvenation of adult chondrocytes. CRM-398 and -423 can be tested in parallel with LIF and their effects on adult articular chondrocyte activation can be assessed as described herein.

p-STAT3/c-MYC = assay: Secondary screening for effects on p-STAT3/c-MYC protein levels; assay type: cell-based; settings: secondary screening of 75 compounds
Experimental: as §3
A strategy for screening for molecules with anti-differentiation effects includes observation of primary limb mesenchyme from mCherry-COL10A1 mice. The screening strategy identifies molecules with STAT3 and c-Myc modulatory activity. FIG. 14 depicts exemplary results for a screening conducted on 170,000 compounds, resulting in 469 hits. FIG. 15 depicts percentage positive z-scores for the 469 compounds identified. FIG. 16 depicts a further screening analysis of the previously identified 469 hit compounds, resulting in 75 refined hits. […]

human fetal chondrocytes = assay: Chondrocyte terminal differentiation (COLX expression, alkaline phosphatase) in human fetal chondrocytes; assay type: cell-based
Text: From a therapeutic and regulatory standpoint, small molecules represent a highly attractive modality for manipulating cell biology. To this end, we conducted a high throughput screen to discover small molecules that regulate chondrocyte differentiation. As a readout for the screen, we chose mice carrying a transgenic mCherry reporter (Maye et al., 2011) for expression of Col10a1 (COL10). COL10 expression, along with alkaline phosphatase (AP) levels, increases during later stages of chondrocyte differentiation, concomitant with withdrawal from the cell cycle. […] To conduct the screen, total limb cells were isolated from Col10a1-mCherry transgenic embryos and cultured in the presence of BMP-4, a driver of chondrocyte hypertrophy (Wu et al., 2013); 170,000 compounds were assayed for their ability to decrease the mCherry signal in live cells under these conditions (FIG. 27A). Out of this first dataset, 469 molecules were selected for confirmatory screening. This number was further reduced to 75 verified compounds that blocked increases in mCherry signal (FIG. 27B). Additional vetting led to the selection of Regulator of Cartilage Growth and Differentiation (RCGD) 423 as the primary compound for continued characterization. The ability of RCGD 423 to inhibit COL10 expression in human cells was confirmed, and AP activity was employed as a supplemental readout of chondrocyte differentiation.
Cells were fixed with 3.7% formaldehyde and stained for alkaline phosphatase activity with SigmaFast 5-bromo-4-chloro-3-indolyl phosphate/4-nitro blue tetrazolium (BCIP/NBT) (Sigma Aldrich, St. Louis, Mo.) according to the manufacturer's protocol.

[5] = system: pig articular cartilage biopsy punches with defects; assay: Repair of defects in adult pig articular cartilage biopsy punches in vitro; assay type: cell-based; settings: Matrigel with microspheres, 5 weeks of culture
Experimental: as §1, §2

Brc1ccc(Nc2nc(-c3ccccc3)cs2)cc1 [RCGD 423, N-(4-Bromophenyl)-4-phenyl-1,3-thiazol-2-amine]
cellular respiration [1]: increased
levels of glycolysis [1]: unchanged
time after drug removal at which increases in pSTAT3 and MYC are observed (pSTAT3 and MYC [2]): up to 7 days
enriched transcripts (increased more than 1.5-fold in 4/7 replicates) [3]: 1,244
pSTAT3 and MYC proteins in other cells/tissues (pSTAT3 and MYC [4]): promotes increases
collagen 2 production by adult chondrocytes (adult chondrocytes): stimulates
toxicity in chondrocyte cultures (chondrocyte cultures): no toxicity
effects on p-STAT3/c-MYC protein levels (p-STAT3/c-MYC): most prominent effects
COL10 expression in human cells (human fetal chondrocytes): inhibit
alkaline phosphatase (AP) levels (human fetal chondrocytes; fetal cartilage treated with BMP-4): significantly reduced
terminal differentiation (COLX expression) (human fetal chondrocytes; human fetal chondrocytes, 1 μM): significant inhibition
repair / remodeling of cartilage defects [5]: promotes cartilage repair
